Data as given in paper PMC6430685 (Nature chemical biology, 2019).

Biological target: BAX (Homo sapiens, UniProt Q07812)
Assay type: biochemical

BAX, sequence (Q07812 whole entry): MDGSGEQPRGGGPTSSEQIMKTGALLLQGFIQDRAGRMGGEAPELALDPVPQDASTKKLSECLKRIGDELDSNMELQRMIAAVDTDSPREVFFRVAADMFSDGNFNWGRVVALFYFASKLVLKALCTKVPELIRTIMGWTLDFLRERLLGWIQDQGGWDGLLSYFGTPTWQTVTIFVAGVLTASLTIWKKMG

OC(CN1CCNCC1)Cn1c2ccccc2c2ccccc21 (stereo not shown) [BAI3]
fold lower activity compared to BAI1: ~ 7 fold
